Source: US11858910B2, “Pyridinylmethylenepiperidine derivatives and uses thereof” (SUNSHINE LAKE PHARMA CO., LTD., priority 2018, dated 2024)
Read-outs that look alike come from different tables or passages of the source.

Assays:
human 5-HT1F receptor = target: T1, human 5-HT1F receptor (Homo sapiens, UniProt P30939); assay: Activating effect on human 5-HT1F receptor transfected CHO-K1 cells (HitHunter cAMP detection kit); assay type: cell-based
T1 construct: expressed in transfected cells; host or cells: CHO-K1
T1 sequence (P30939 1-366): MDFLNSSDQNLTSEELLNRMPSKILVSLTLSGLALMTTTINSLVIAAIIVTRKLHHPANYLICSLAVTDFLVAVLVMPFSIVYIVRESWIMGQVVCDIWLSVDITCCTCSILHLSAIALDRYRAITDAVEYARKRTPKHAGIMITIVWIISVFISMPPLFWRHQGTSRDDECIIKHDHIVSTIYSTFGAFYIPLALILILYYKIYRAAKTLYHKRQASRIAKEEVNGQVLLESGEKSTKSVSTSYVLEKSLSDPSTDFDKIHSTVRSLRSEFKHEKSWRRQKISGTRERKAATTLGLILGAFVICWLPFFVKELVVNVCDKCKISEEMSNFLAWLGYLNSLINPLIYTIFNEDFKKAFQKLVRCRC
Protocol: Experimental purposes: To evaluate the activating effect of the compound on CHO-K1 cells transfected human 5-HT1F receptor by using HitHunter cAMP detection kit.
Experimental brief process: CHO-K1 cells were cultured in a 384 microporous plate. The volume of cell culture medium (Assay Complete™ Cell Plating Reagent, DIscoverX) was 20 μL and the cell density was 10,000/well. The cells were cultured overnight at 37° C. and 5% CO2. Then the culture medium was removed, and 15 μL of cAMP Assay Buffer (DIscoverX) was added into each well, and then 5 μL of test sample containing 4× sample (test compound or 5-HT) and 4× forskolin (final concentration of forskolin is 15 μM) was added. The microporous plate was placed at 37° C. for 30 minutes. Then 5 μL of cAMP Antibody Reagent (DiscoverX) and 20 μL of cAMP Working Detection Solution (DiscoverX) were added and incubated in the dark for 1 hour, and then 20 μL of cAMP Solution A was added and incubated in the dark for 3 hours. The microporous plate was placed in the Perkin Elmer Envision™ to read the intensity of the optical signal. The activation rate was calculated by the intensity of the optical signal obtained from testing the compounds with different concentrations ((1−(Y/Z))*100%=the activation rate, wherein, Y represents the intensity of the optical signal adding test sample, and Z represents the intensity of the optical signal adding only forskolin). The dose-effect curve of the compounds was calculated by Prism software, and the concentration of the agonist with half maximum response was calculated and expressed by EC50 value. The results were shown in Table A. 5-HT was used as a positive control drug to ensure the normal experimental system in this experiment.

[1] = Pharmacokinetic evaluation after intravenous or gavage administration to dogs; assay type: in vivo, Beagle dogs
Protocol: (§1) The inventors had evaluated the pharmacokinetics of the compounds of the invention in rats and dogs. Wherein animal information was detailed in Table 1.
(§2) The compound was administered to the animal subjects in the form of 5% DMSO+60% PEG400+35% Saline solution or 10% DMSO+10% Kolliphor HS15+30% PEG400+50% Saline solution. The animals were fasted for 12 hours before administration, but drinking water freely. For the group of intravenous administration, the administration dose is 0.5 mg/kg or 1 mg/kg, and vein blood samples (0.15 mL) were collected at the time points of 0.083, 0.25, 0.5, 1.0, 2.0, 4.0, 6.0, 8.0 and 24 h (dogs) or 0.083, 0.25, 0.5, 1.0, 2.0, 5.0, 7.0 and 24 h (rats) after drug administration. EDTA-K2 as anticoagulant was pre-added into the blood vessel. The plasma solutions were collected by centrifuging each blood sample at 12,000 rpm for 2 minutes and kept at −20° C. or −70° C. For the group of gavage administration, the administration dose is 2.5 mg/kg or 5 mg/kg, and vein blood samples (0.15 mL) were collected at the time points of 0.25, 0.5, 1.0, 2.0, 4.0, 6.0, 8.0 and 24 h (dogs) or 0.25, 0.5, 1.0, 2.0, 5.0, 7.0 and 24 h (rats) after drug administration. EDTA-K2 as anticoagulant was pre-added into the blood vessel. The plasma solutions were collected by centrifuging each blood sample at 12,000 rpm for 2 minutes and kept at −20° C. or −70° C.
(§3) After processing the above plasma sample (the frozen plasma was melted at room temperature and then whirled for 15 seconds. 10 to 20 μL of the plasma was taken out, and whirled with 120 to 150 μL of an acetonitrile solution containing an internal standard for 5 minutes. The mixture was centrifuged for 5 minutes at 4,000 rpm. 100 μL of the supernatant was taken out and mixed with 120 to 150 μL of methanol-water (v/v=1/1)), the concentration of compounds in plasma was analyzed by LC-MS/MS. […] The compound of the invention has better drug properties and better clinical application prospects. Wherein the pharmacokinetic parameters of examples 12 and 19 in rats were detailed in Table B1; the pharmacokinetic parameters of examples 12 and 19 in dogs were detailed in Table B2.

[2] = Pharmacokinetic evaluation after intravenous or gavage administration to rats; assay type: in vivo, SD rats
Protocol: as §1, §2, §3

[3] = CHO-K1 cells, forskolin 15 μM, cAMP, read-out: EC50
[4] = Beagle, dog, in vivo, iv, 0.5 mg/kg
[5] = beagle, dog, in vivo, po, 2.5 mg/kg

Which EC50 (human 5-HT1F receptor; [3]) does the source give for `CN1CCC(=C(F)c2cccc(NC(=O)c3ccc(F)cc3F)n2)CC1` [Example 10, 2,4-difluoro-N-(6-(fluoro(1-methylpiperidin-4-ylidene)methyl)pyridine-2-yl)benzamide] here?
The EC50 was 3 nM.

With `CN1CCC(=Cc2cccc(NC(=O)c3c(F)cc(F)cc3F)n2)CC1` [Example 5, 2,4,6-trifluoro-N-(6-((1-methylpiperidin-4-ylidene)methyl)pyridine-2-yl)benzamide] as the compound, how does the EC50 (human 5-HT1F receptor; [3]) read?
The EC50 was 1.9 nM.

For `CN1CCC(=C(F)c2cccc(NC(=O)c3c(F)cc(F)cc3F)n2)CC1` [Example 12, 2,4,6-trifluoro-N-(6-(fluoro(1-methylpiperidin-4-ylidene)methyl)pyridine-2-yl)benzamide], which AUC(0-inf) ([1]; Beagle, dog, plasma, iv, dogs, i.v group, 1 mg/kg, read-out: AUCINF) is on record?
Its AUC(0-inf) is 660 ng·h/mL.

And the AUC(0-t) ([1]; Beagle, dog, plasma, iv, dogs, i.v group, 1 mg/kg, read-out: AUClast)?
The AUC(0-t) was 652 ng·h/mL.

And the clearance ([1]; Beagle, dog, plasma, iv, dogs, i.v group, 1 mg/kg, read-out: Cl)?
The clearance was 25.2 mL/min/kg.

What about the Cmax ([1]; Beagle, dog, plasma, iv, dogs, i.v group, 1 mg/kg, read-out: Cmax) of the same compound?
Its Cmax is 170 ng/mL.

And the MRT inf ([1]; Beagle, dog, plasma, iv, dogs, i.v group, 1 mg/kg, read-out: MRTINF)?
The MRT inf was 4.11 h.

What about the half-life ([1]; Beagle, dog, plasma, iv, dogs, i.v group, 1 mg/kg, read-out: T1/2 (converted)) of the same compound?
Its half-life is 3.52 h.

And the Tmax ([1]; Beagle, dog, plasma, iv, dogs, i.v group, 1 mg/kg, read-out: Tmax)?
The Tmax was 0.25 h.

And the Vd ([1]; Beagle, dog, plasma, iv, dogs, i.v group, 1 mg/kg, read-out: Vss)?
Its Vd is 6.22 L/kg.

What about the AUC(0-inf) ([1]; Beagle, dog, plasma, po, dogs, i.g group, 5 mg/kg, read-out: AUCINF) of the same compound?
The AUC(0-inf) was 705 ng·h/mL.

What about the AUC(0-t) ([1]; Beagle, dog, plasma, po, dogs, i.g group, 5 mg/kg, read-out: AUClast) of the same compound?
The AUC(0-t) was 691 ng·h/mL.

And the Cmax ([1]; Beagle, dog, plasma, po, dogs, i.g group, 5 mg/kg, read-out: Cmax)?
The Cmax was 82.8 ng/mL.

What about the MRT inf ([1]; Beagle, dog, plasma, po, dogs, i.g group, 5 mg/kg, read-out: MRTINF) of the same compound?
Its MRT inf is 5.98 h.

What about the half-life ([1]; Beagle, dog, plasma, po, dogs, i.g group, 5 mg/kg, read-out: T1/2 (converted)) of the same compound?
The half-life was 4.28 h.

What about the Tmax ([1]; Beagle, dog, plasma, po, dogs, i.g group, 5 mg/kg, read-out: Tmax) of the same compound?
Its Tmax is 1.67 h.

What about the F ([1]; dogs, i.g group, 5 mg/kg) of the same compound?
Its F is 21.4%.

And the AUC(0-inf) ([2]; SD, rat, plasma, iv, rats, i.v group, 1 mg/kg, read-out: AUCINF)?
The AUC(0-inf) was 114 ng·h/mL.

And the AUC(0-t) ([2]; SD, rat, plasma, iv, rats, i.v group, 1 mg/kg, read-out: AUClast)?
The AUC(0-t) was 111 ng·h/mL.

And the clearance ([2]; SD, rat, plasma, iv, rats, i.v group, 1 mg/kg, read-out: Cl)?
The clearance was 146 mL/min/kg.

What about the Cmax ([2]; SD, rat, plasma, iv, rats, i.v group, 1 mg/kg, read-out: Cmax) of the same compound?
Its Cmax is 80.5 ng/mL.

What about the MRT inf ([2]; SD, rat, plasma, iv, rats, i.v group, 1 mg/kg, read-out: MRTINF) of the same compound?
Its MRT inf is 1.66 h.

And the half-life ([2]; SD, rat, plasma, iv, rats, i.v group, 1 mg/kg, read-out: T1/2 (converted))?
The half-life was 1.38 h.

What about the Tmax ([2]; SD, rat, plasma, iv, rats, i.v group, 1 mg/kg, read-out: Tmax) of the same compound?
The Tmax was 0.083 h.

What about the Vd ([2]; SD, rat, plasma, iv, rats, i.v group, 1 mg/kg, read-out: Vss) of the same compound?
The Vd was 14.6 L/kg.

And the AUC(0-inf) ([2]; SD, rat, plasma, po, rats, i.g group, 5 mg/kg, read-out: AUCINF)?
Its AUC(0-inf) is 354 ng·h/mL.

What about the AUC(0-t) ([2]; SD, rat, plasma, po, rats, i.g group, 5 mg/kg, read-out: AUClast) of the same compound?
The AUC(0-t) was 296 ng·h/mL.

What about the Cmax ([2]; SD, rat, plasma, po, rats, i.g group, 5 mg/kg, read-out: Cmax) of the same compound?
Its Cmax is 71.8 ng/mL.

What about the MRT inf ([2]; SD, rat, plasma, po, rats, i.g group, 5 mg/kg, read-out: MRTINF) of the same compound?
Its MRT inf is 4.05 h.

What about the half-life ([2]; SD, rat, plasma, po, rats, i.g group, 5 mg/kg, read-out: T1/2 (converted)) of the same compound?
The half-life was 2.31 h.

What about the Tmax ([2]; SD, rat, plasma, po, rats, i.g group, 5 mg/kg, read-out: Tmax) of the same compound?
The Tmax was 2 h.

And the F ([2]; rats, i.g group, 5 mg/kg)?
Its F is 62%.

What about the EC50 (human 5-HT1F receptor) of the same compound?
Its EC50 is 1.5 nM.

What does the source list for `CCN1CCC(=C(F)c2cccc(NC(=O)c3c(F)cc(F)cc3F)n2)CC1` [Example 19, 2,4,6-trifluoro-N-(6-(fluoro(1-ethylpiperidin-4-ylidene)methyl)pyridin-2-yl)benzamide]?
F ([1]; Beagle, dog, in vivo, 2.5 mg/kg): 12.4%; AUC(0-inf) [1, 4]: 634 ng·h/mL; AUC(0-t) [1, 4]: 632 ng·h/mL; Cmax [1, 4]: 442 ng/mL; MRT inf [1, 4]: 1.39 h; Tmax [1, 4]: 0.083 h; Vd [1, 4]: 1.1 L/kg; clearance [1, 4]: 13.1 mL/min/kg; half-life [1, 4]: 1.06 h; AUC(0-inf) [1, 5]: 392 ng·h/mL; AUC(0-t) [1, 5]: 356 ng·h/mL; Cmax [1, 5]: 126 ng/mL; MRT inf [1, 5]: 3.26 h; Tmax [1, 5]: 1 h; half-life [1, 5]: 1.96 h; F ([2]; SD, rat, in vivo, 5 mg/kg): 105%; AUC(0-inf) ([2]; SD, rat, in vivo, iv, 1 mg/kg): 259 ng·h/mL; AUC(0-t) ([2]; SD, rat, in vivo, iv, 1 mg/kg): 240 ng·h/mL; Cmax ([2]; SD, rat, in vivo, iv, 1 mg/kg): 67.7 ng/mL; MRT inf ([2]; SD, rat, in vivo, iv, 1 mg/kg): 2.95 h; Tmax ([2]; SD, rat, in vivo, iv, 1 mg/kg): 0.5 h; Vd ([2]; SD, rat, in vivo, iv, 1 mg/kg): 11.4 L/kg; clearance ([2]; SD, rat, in vivo, iv, 1 mg/kg): 64.4 mL/min/kg; half-life ([2]; SD, rat, in vivo, iv, 1 mg/kg): 2.1 h; AUC(0-inf) ([2]; SD, rat, in vivo, po, 5 mg/kg): 1320 ng·h/mL; AUC(0-t) ([2]; SD, rat, in vivo, po, 5 mg/kg): 1260 ng·h/mL; Cmax ([2]; SD, rat, in vivo, po, 5 mg/kg): 169 ng/mL; MRT inf ([2]; SD, rat, in vivo, po, 5 mg/kg): 5.01 h; Tmax ([2]; SD, rat, in vivo, po, 5 mg/kg): 3.67 h; half-life ([2]; SD, rat, in vivo, po, 5 mg/kg): 3.06 h; EC50 (human 5-HT1F receptor; [3]): 6.8 nM

Which EC50 (human 5-HT1F receptor; [3]) does the source give for `CN1CCC(=Cc2cccc(NC(=O)c3ccc(F)cc3F)n2)CC1` [Example 3, 2,4-difluoro-N-(6-((1-methylpiperidin-4-ylidene)methyl)pyridine-2-yl)benzamide] here?
Its EC50 is 5.9 nM.
